# Patent US11679096B1, “Composition and method of treatment of elevated ApoE gene expression related health issues” (priority 2022, dated 2023)
# Tests used:
# [1] = test system: ApoE gene transcripts in Alzheimer disease (AD) fibroblasts; experiment: Effects of individual components on ApoE gene transcription in AD fibroblasts (young and old donors, not separated); format: cell-based, human; details: 1 ug/ml, overnight
# [2] = test system: ApoE gene transcripts in AD fibroblasts (AG07887); experiment: ApoE gene transcription (RT-PCR) in fibroblasts from young Alzheimer's disease donor; format: cell-based, human; details: with IL1b, Mix 1 at 1 mcg/ml, estradiol 5 nM
# Procedure: (§1) ApoE and iNOS determination: Fibroblasts from Alzheimer disease (AD) […] (AG07887), and […] (AG08629) and/or Normal Human fibroblasts (NHDF) and/or lung cancer cell line A549 were grown on DMEM/F12 without phenol red (Gibco, USA). Media was supplemented with charcoal stripped, sterile-filtered 10% fetal bovine serum (Sigma-Millipore, USA Origen), and 1% penicillin-streptomycin.
# (§2) Cells were separated and splatted in 2 cm cell culture dishes and subjected to none or treated with IL-1βat 15 pg/ml, in the presence of Basic Mix (1 μg/ml), Mix 1-1 (1 μg/ml), Mix 1-2 (2 μg/ml), genistein (1 μg/ml), and estrogen E2 (5 nM) as indicated in each experiment. Treated cells were incubated for two hours or overnight followed by RNA isolation and purification for RT-PCR analysis.
# (§3) Total RNA was obtained by standard method RNeasy* Plus, (Qiagen, Germany) lysing cells with RLT Plus buffer according to the manufacturer's instructions. Equal amount of RNA extracted from each treated lysate was reverse transcribed in 20 microliters reactions with RT-QuantiTech kit (Qiagen, Germany). […] Amplification in 40 cycles and Ct quantification was carried out in CFX-Connect PCR-system from BioRad. Relative expression of the target gene data was analyzed using delta Ct method and compared to delta Ct of expression of a reference gene. […]
# [3] = test system: ApoE gene transcripts in lung cancer cell line A549; experiment: ApoE gene transcription (RT-PCR) in lung cancer cells with IL-1β; format: cell-based, human; details: A549, IL-1 15 pg/ml; Mix 1 4 μg/ml, estrogen 5 nM, genistein 1 μg/ml
# Procedure: as §1, §2, §3
# [4] = test system: MCF7 estrogen-dependent breast cancer cells; experiment: In vitro MCF7 cells proliferation (E-SCREEN) assay, MTT; format: cell-based, human; details: β-17-estradiol 0.5 μg/ml, 6 days
# Procedure: In vitro MCF7 cells proliferation (E-SCREEN) assay: MCF-7 cells (1×10^3 cells/well of a 96-well plate) were cultured with different micronutrients and plant extracts (0.5-5 μg/ml) with added β-17-estradiol (0.5 μg/ml) for 6 days at 37° C. Thereafter, medium in each well, including control wells, was replaced with 150 μl of tetrazolium MTT (3-(4, 5-dimethylthiazolyl-2)-2,5-diphenyltetrazolium bromide) ([…]). Wells that received DMSO only were used as negative control whereas that cells that receive only β-17-estradiol were use as positive control. Next, cells were incubated for 3 h at 37° C., the supernatant with MTT was removed, and the adherent cells were rinsed with PBS. Next, 150 μl of isopropanol was added to each well and the absorbance was measured at 570 nm using the microplate reader. Percentage of MTT reduction by metabolically active cell to purple formazan (reflecting cell proliferation rate) was calculated as following equation: Proliferation rate=[(ODsample-ODcontrol)/ODcontrol].
# We used MCF7 cancer cells which are epithelial cells isolated from the breast tissue of a patient with metastatic adenocarcinoma and depend on estrogen to proliferate. […]
# [5] = test system: ApoE gene transcripts in AD fibroblasts (AG08629); experiment: ApoE gene transcription (RT-PCR) in fibroblasts from old Alzheimer's disease donor; format: cell-based, human; details: with IL1b, Mix 1 at 1 mcg/ml, Basic Mix 1 ug/ml, estradiol 5 nM
# Procedure: as §1, §2, §3
# [6] = test system: iNOS gene transcripts in lung cancer cell line A549; experiment: iNOS expression (RT-PCR) in lung cancer cells with IL-1β; format: cell-based, human
# Procedure: as §1, §2, §3
# [7] = test system: ApoE gene transcripts in NHDF; experiment: ApoE gene transcription (RT-PCR) in normal human dermal fibroblasts; format: cell-based; details: overnight
# [8] = pro-inflammatory conditions (IL1b 15 pg/ml)
# [9] = normal conditions (without IL1β)
# [10] = pro-inflammatory condition (with IL1β)
molecule,measurement,setting,value
O=c1c(O)c(-c2ccc(O)c(O)c2)oc2cc(O)cc(O)c12 [quercetin],effect of individual compounds on ApoE transcript,[1]; normal conditions (without IL1b),lowering effect
same,effect of individual compounds on ApoE transcript,[1]; [8],ApoE increasing effects
"C[C@]12CC[C@@H]3c4ccc(O)cc4CC[C@H]3[C@@H]1CC[C@@H]2O [estrogen, β-17-estradiol]",decrease of ApoE transcription,[2],equal to control
same,effect on ApoE transcripts in human lung cancer cells,[3],inhibitory effect
same,"MCF7 proliferation rate, higher compared to normal control",[4],about 1.2 folds
same,decrease of ApoE transcript compared to no treatment control,[5],about 3 times
same,increase of iNOS expression over control,"[6]; A549, IL-1 15 pg/ml, estrogen 5 nM",more than 20 times
"CC(C)(CO)[C@@H](O)C(=O)NCCC(=O)O [vitamin B5, Pantothenic acid]",effect on ApoE expression,[7]; [9],moderate lowering effect
"Cc1c(C)c2c(c(C)c1O)CC[C@@](C)(CCC[C@H](C)CCC[C@H](C)CCCC(C)C)O2 [Vitamin E, D-alpha-tocopherol]",effect on ApoE expression,[7]; [9],moderate lowering effect
O=c1c(-c2ccc(O)cc2)coc2cc(O)cc(O)c12 [genistein],effect of individual compounds on ApoE transcript,[1]; [8],slight ApoE lowering effect
same,effect on ApoE transcripts in human lung cancer cells,[3],inhibitory effect
same,lowering of iNOS transcript,"[6]; A549, pro-inflammatory conditions (IL1b), 1 mcg/ml",comparable
phosphatidyl choline,effect on ApoE expression,[7]; [10],comparable
O=c1c(-c2ccc(O)cc2)coc2cc(O)ccc12 [Daidzein],effect of individual compounds on ApoE transcript,[1]; [8],ApoE increasing effects
"O[C@H]1[C@H](O)[C@@H](O)[C@H](O)[C@@H](O)[C@H]1O [inositol, Inositol]",effect on ApoE expression,[7]; [10],comparable
